Measured values: patent US20060078494A1, “Use of inhibitors of 24-hydroxylase in the treatment of cancer” (Sapphire Therapeutics, Inc., priority 2004, published 2006)

Legend:
[1] = system: Human RL B-lymphoma cells; test: Human RL B-lymphoma cells in SCID mice; format: in vivo; details: expected
Protocol: Human RL B-lymphoma cells (Beckwith et al. (1990) J. Nat. Cancer Inst. 82, 501) are maintained in vitro by passage in growth medium. The cells are washed thoroughly in PBS to remove culture components. SCID mice are injected with one million human lymphoma cells via the tail vein in 100 microliters (μl). 24-hydroxylase inhibitor treatment is initiated the following day by daily intraperitoneal (i.p.) injection of 3 mg/kg 24-hydroxylase inhibitor (VID400), alone or in combination with doxorubicin at 5 mg/kg, or vehicle. Mice are monitored for survival and significant morbidity. […] Depending on the lymphoma cell line employed, the untreated mice typically die within 3 to 6 weeks.

[2] = system: C57BL6 murine ID8 ovarian carcinoma cell line; test: Mouse syngeneic model of ovarian carcinoma (ID8 VEGF164/GFP); format: in vivo, C57BL6 mice; details: expected; for tumor growth delay compared with vehicle control: single agent (inhibitor 2 mg/kg; cisplatin 2 or 6 mg/kg)
Protocol: The efficacy of a 24-hydroxylase inhibitor, alone or in combination with a chemotherapeutic agent is tested in a mouse syngeneic model of ovarian carcinoma using methods as described in Zhang et al., (Am. J. of Pathol. (2002) 161:2295-2309). Briefly, using retroviral transfection and fluorescence-activated cell sorting, a C57BL6 murine ID8 ovarian carcinoma cell line is generated that stably overexpresses the murine VEGF164 isoform and the enhanced green fluorescence protein (GFP). The retroviral construct containing VEGF164 and GFP cDNAs is then transfected into BOSC23 cells. The cells are analyzed by FACS cell sorting, and cells showing high GFP fluorescence are identified and isolated. The ID8 VEGF164/GFP transfected cells are cultured to subconfluence and prepared in a single-cell suspension in phosphate buffer saline (PBS) and cold […] (BD Biosciences, Bedford, Mass.). Six to eight week old female C57BL6 mice are injected subcutaneously in the flank with 5×10^6 transfected or untransfected (control) cells. Animals are sacrificed eight weeks after inoculation and evaluated for tumor growth. Mice are treated with a 24-hydroxylase inhibitor (VID 400/RC-8800) beginning 3-14 days following tumor implantation. Mice are treated in the following groups, with 5 mice for each group:
The agents are administered on a daily basis for 14 days. Animals are monitored daily for body weight, and significant morbidity.

[3] = molecular target: T1, 24-hydroxylase (CYP24) (Homo sapiens, UniProt Q07973); details: identified by Schuster et al., J. Cell. Biochem. 88:372-380 (2003); cited from earlier work
T1 construct: confluent cultures of human keratinocytes are isolated from adult skin in serum-free keratinocyte growth medium; endogenous in cells; host or cells: primary human keratinocytes from adult skin
T1 sequence (Q07973 36-514): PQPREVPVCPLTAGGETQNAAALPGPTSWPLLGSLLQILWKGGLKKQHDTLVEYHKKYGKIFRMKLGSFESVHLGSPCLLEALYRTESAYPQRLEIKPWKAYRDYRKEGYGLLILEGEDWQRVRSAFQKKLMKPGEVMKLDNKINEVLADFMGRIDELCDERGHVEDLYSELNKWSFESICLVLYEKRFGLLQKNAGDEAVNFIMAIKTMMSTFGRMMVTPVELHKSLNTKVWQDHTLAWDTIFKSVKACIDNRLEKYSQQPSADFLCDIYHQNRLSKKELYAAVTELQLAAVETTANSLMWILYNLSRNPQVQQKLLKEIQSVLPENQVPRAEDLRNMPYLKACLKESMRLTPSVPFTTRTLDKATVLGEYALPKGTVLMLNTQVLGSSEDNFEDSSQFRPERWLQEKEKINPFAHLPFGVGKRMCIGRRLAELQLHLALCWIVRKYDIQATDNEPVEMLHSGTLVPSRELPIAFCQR

[4] = molecular target: T2, 24-hydroxylase (Homo sapiens, UniProt Q07973); details: described by Kahraman et al., J. Med. Chem. 47:6854-6863 (2004); cited from earlier work
T2 sequence (Q07973 36-514): T1 sequence (Q07973 36-514)

## O=C(NC[C@@H](c1ccccc1)n1ccnc1)c1ccc(-c2ccc(Cl)cc2)cc1 [(R)-VID400, 2-(R)-4′-Chlorobiphenyl-4-carboxylic acid (2-imidazol-1-yl-2-phenyl-ethyl)-amide]
[1]; VID400 3 mg/kg i.p. daily in combination with doxorubicin 5 mg/kg
  inhibition in tumor growth: highest growth inhibition
[2]; 24-hydroxylase inhibitor 2 mg/kg + cisplatin 2 or 6 mg/kg, daily for 14 days, vs cisplatin alone at same dosage or inhibitor alone
  tumor growth delay: delay longer than cisplatin alone
[2]; 24-hydroxylase inhibitor 2 mg/kg + cisplatin, vs vehicle or single therapy controls of same dosage
  body weight: maintain body weight significantly more
[2]; daily for 14 days
  tumor growth delay compared with vehicle control: significant delay
[3]
  inhibition of 24-hydroxylase: potent inhibitors

## N.N.[Cl][Pt][Cl] [Cisplatin, reference compound]
[2]; daily for 14 days
  tumor growth delay compared with vehicle control: significant delay

## C=C1/C(=C\C=C2/CCCC3(C)C2CC[C@@H]3[C@H](C)CCS(=N)(=O)c2ccc(F)cc2)C[C@@H](O)C[C@@H]1O (stereo partly drawn) [Formula VI]
[4]
  potency as 24-hydroxylase inhibitor (structure activity relationships): slightly less potent

## C=C1/C(=C\C=C2/CCCC3(C)C2CC[C@@H]3[C@H](C)CCS(=N)(=O)c2ccccc2)C[C@@H](O)C[C@@H]1O (stereo partly drawn) [Formula V]
[4]
  potency as 24-hydroxylase inhibitor (structure activity relationships): most potent

## COc1cccc2c1C(=O)c1c(O)c3c(c(O)c1C2=O)C[C@@](O)(C(=O)CO)C[C@@H]3O[C@H]1C[C@H](N)[C@H](O)[C@H](C)O1 [doxorubicin, reference compound]
[1]; doxorubicin 5 mg/kg alone, SCID mice, RL B-lymphoma
  inhibition in tumor growth: significant inhibition
